Measured values published in patent US20040198788A1, “Medicinal compositions containing angiotensin II receptor antagonist” (SANKYO COMPANY, LIMITED, priority 2001, published 2004).

System: Watanabe heritable hyperlipidemic (WHHL) rabbits
Experiment: Determination of aortic lesioned area
Assay type: in vivo, rabbit
Conditions: olmesartan 0.5 mg/kg, compound A 20 mg/kg
Experimental: Determination of Aortic Lesioned Area Watanabe heritable hyperlipidemic (WHHL) rabbits aged 16 weeks were divided in 4 groups consisting of 12 or 13 animals each: control group (5% gum arabic solution), olmesartan (0.5 mg/kg) group, compound A (20 mg/kg) group, and combination group of olmesartan (0.5 mg/kg) and compound A (20 mg/kg). These test agents were orally administered for 24 weeks. After the 24th week, the rabbits were sacrificed and their aorta were isolated to determine the aortic lumen area and arteriosclerotic lesion area in the aortic lumen. Then the percentage of arteriosclerotic lesion area in the aortic lumen [arteriosclerotic lesion area in the aortic lumen/the aortic lumen area]×100 (%)] was calculated.

CCCCCCCCN1CCc2c(C)c(CC(=O)O)c(C)c(NC(=O)C(C)(C)C)c21.O=S(=O)(O)O [compound A, N-(1-octyl-5-carboxymethyl-4,6-dimethylindolin-7-yl)-2,2-dimethylpropaneamide sulfate]
lesion area in % (percentage of arteriosclerotic lesion area in the aortic lumen) (WHHL rabbits aged 16 weeks, oral administration for 24 weeks, control group 59.7): 59.0% | arteriosclerotic lesion area compared with control / single-administration groups (in words) (WHHL rabbits, oral, 24 weeks): little affected
